Assay results published in US20220348592A1, “FUSED HETEROCYCLIC DERIVATIVES” (Janssen Sciences Ireland Unlimited Company, priority 2019, published 2022).

Experiments:
[1] = Cytotoxicity in HepG2.117 cells, ATPlite Luminescence Assay; format: cell-based, human; conditions: human, incubated for 3 days, mean value, read-out: TOX-HepG2.117 CC50 (μM, mean value)
Experimental: Cytotoxicity of the compounds was tested using HepG2 or HepG2.117 cells, incubated for 3 days in the presence of compounds. The viability of the cells was assessed using the PERKIN ELMER ATPlite Luminescence Assay System.”

HBV = assay: Anti-HBV activity: intracellular HBV DNA by real-time PCR in HepG2.117 cell line; format: cell-based, Hepatitis B virus; conditions: Hepatitis B virus, 72 h; HepG2.117 cells, 3 days of treatment, intracellular HBV DNA by real-time PCR, mean value; read-out: HBV-AVE-HepG2.117 EC50 (μM, mean value)
Experimental: The anti HBV activity was measured using the HepG2.117 cell line, a stable, inducibly HBV producing cell line, which replicates HBV in the absence of doxicycline (Tet-off system). The HepG2 cell line is available from ATCC® under number HB-8065. Transfection of the HepG2 cell line can be as described in Sun and Nassal 2006 Journal of Hepatology 45 (2006) 636-645 “Stable HepG2- and Huh7-based human hepatoma cell lines for efficient regulated expression of infectious hepatitis B virus”.
For the antiviral assay, HBV replication was induced, followed by a treatment with serially diluted compound in 96-well plates. After 3 days of treatment, the antiviral activity was determined by quantification of intracellular HBV DNA using real-time PCR and an HBV specific primer set and probe.

Compound	CC50 at 3 days [1] [µM]	EC50 (HBV) [µM]
CC(c1ccc(C#N)cc1)N1CCn2nc3c(c2C1=O)CN(C(=O)c1ccc(Cl)c(Cl)c1)[C@H](C)C3 (stereo partly drawn) [Example C88]	> 48	0.038
CC(c1nccs1)N1CCn2nc3c(c2C1=O)CN(C(=O)c1ccc(Cl)c(Cl)c1)[C@H](C)C3 (stereo partly drawn) [Example C218]	> 50	0.039
C[C@@H]1Cc2nn3c(c2CN1C(=O)c1ccc(Cl)c(Cl)c1)C(=O)N(Cc1nnn(C)n1)CC3 [Example C200]	> 50	0.25
Cc1nc(CN2CCn3nc4c(c3C2=O)CN(C(=O)c2ccc(Cl)c(Cl)c2)[C@H](C)C4)cs1 [Example C162]	> 50	0.082
C[C@@H]1Cc2nn3c(c2CN1C(=O)c1ccc(Cl)c(Cl)c1)C(=O)N(Cc1ncccn1)CC3 [Example C60]	> 50	0.565
C[C@@H]1Cc2nn3c(c2CN1C(=O)c1ccc(Cl)c(Cl)c1)C(=O)N([C@@H](C)c1ccc(C#N)cc1)CC3 (relative stereo) [C88*S]	> 50	0.023
Cc1cc(CN2CCn3nc4c(c3C2=O)CN(C(=O)c2ccc(Cl)c(Cl)c2)[C@H](C)C4)no1 [Example C141]	> 50	0.056
Cc1conc1CN1CCn2nc3c(c2C1=O)CN(C(=O)c1ccc(Cl)c(Cl)c1)[C@H](C)C3 [Example C236]	> 51	0.325
C[C@@H]1Cc2nn3c(c2CN1C(=O)c1ccc(Cl)c(Cl)c1)C(=O)N(Cc1nnc(C2CC2)o1)CC3 [Example C201]	> 50	0.229
C[C@@H]1Cc2nn3c(c2CN1C(=O)c1ccc(Cl)c(Cl)c1)C(=O)N(Cc1c(F)cncc1F)CC3 [Example C197]	> 50	0.24
C[C@@H]1Cc2nn3c(c2CN1C(=O)c1ccc(Cl)c(Cl)c1)C(=O)N([C@H](C)c1ccccc1C(F)(F)F)CC3 (relative stereo) [C123*S]	19.2	0.517
Cc1nonc1CN1CCn2nc3c(c2C1=O)CN(C(=O)c1ccc(Cl)c(Cl)c1)[C@H](C)C3 [Example C146]	> 50	1.79
COc1ccc(CN2CCn3nc4c(c3C2=O)CN(C(=O)c2ccc(C)c(F)c2)CC4)cc1 [Example C53]	20.4	1.08
COc1ccc(C(C)N2CCn3nc4c(c3C2=O)CN(C(=O)c2ccc(Cl)c(Cl)c2)[C@H](C)C4)cc1OC (stereo partly drawn) [Example C92]	24.4	0.025
C[C@@H]1Cc2nn3c(c2CN1C(=O)c1ccc(Cl)c(Cl)c1)C(=O)N(Cc1nc(C2CC2)nn1C)CC3 [Example C235]	> 50	1.93
COc1cccc(C(C)N2CCn3nc4c(c3C2=O)CN(C(=O)c2ccc(Cl)c(Cl)c2)[C@H](C)C4)c1 (stereo partly drawn) [Example C131]	19.6	0.038
Cc1nc(CN2CCn3nc4c(c3C2=O)CN(C(=O)c2ccc(Cl)c(Cl)c2)[C@H](C)C4)co1 [Example C156]	> 50	0.174
Cc1nnc(C(C)N2CCn3nc4c(c3C2=O)CN(C(=O)c2ccc(Cl)c(Cl)c2)[C@H](C)C4)o1 (stereo partly drawn) [Example C224]	> 50	0.326

Compound	CC50 at 3 days [1] [µM]	EC50 (HBV) [µM]
O=C(c1cnc(Cl)c(Cl)c1)N1CCc2nn3c(c2C1)C(=O)N(Cc1ccccn1)CC3 [Example C73]	> 50	> 2.5
COc1ccc(CN2CCn3nc4c(c3C2=O)CN(C(=O)c2ccc(Cl)c(Cl)c2)[C@H](C)C4)cn1 [Example C106]	33.8	0.031
C[C@@H]1Cc2nn3c(c2CN1C(=O)c1ccc(Cl)c(Cl)c1)C(=O)N([C@H](C)c1ccc(C#N)cc1)CC3 (relative stereo) [C88*R]	> 50	0.076
Cc1ncc(CN2CCn3nc4c(c3C2=O)CN(C(=O)c2ccc(Cl)c(Cl)c2)[C@H](C)C4)o1 [Example C209]	> 50	> 2.5
CC(c1ccc(F)cc1F)N1CCn2nc3c(c2C1=O)CN(C(=O)c1ccc(Cl)c(Cl)c1)[C@H](C)C3 (stereo partly drawn) [Example C192]	39.7	0.076
C[C@@H]1Cc2nn3c(c2CN1C(=O)c1ccc(Cl)c(Cl)c1)C(=O)N(Cc1ccccc1F)CC3 [Example C80]	26.1	0.05
C[C@@H]1Cc2nn3c(c2CN1C(=O)c1ccc(Cl)c(Cl)c1)C(=O)N(Cc1cn(C)cn1)CC3 [Example C202]	> 50	0.071
Cc1cc(F)cc2[nH]c(C(=O)N3Cc4c(nn5c4C(=O)N(Cc4ccccn4)CC5)C[C@H]3C)cc12 [Example C109]	18.9	0.013
C[C@@H]1Cc2nn3c(c2CN1C(=O)c1ccc(Cl)c(Cl)c1)C(=O)N(Cc1cccnc1)CC3 [Compound 16, (3R)-2-(3,4-Dichlorobenzoyl)-3-methyl-9-[(pyridin-3-yl)methyl]-1,2,3,4,8,9-hexahydropyrido-[4′,3′:3,4]pyrazolo[1,5-a]pyrazin-10(7H)-one]	> 50	0.079
CC(c1nc(C(C)(C)C)no1)N1CCn2nc3c(c2C1=O)CN(C(=O)c1ccc(Cl)c(Cl)c1)[C@H](C)C3 (stereo partly drawn) [Example C217]	39.5	0.183
CC(c1nnnn1C)N1CCn2nc3c(c2C1=O)CN(C(=O)c1ccc(Cl)c(Cl)c1)[C@H](C)C3 (stereo partly drawn) [Example C247]	> 50	> 2.5
C[C@@H]1Cc2nn3c(c2CN1C(=O)c1ccc(Cl)c(Cl)c1)C(=O)N([C@@H](C)c1c[nH]nn1)CC3 (single isomer, unassigned) [Compound 32, (3R)-2-(3,4-Dichlorobenzoyl)-3-methyl-9-[(1*S)-1-(1H-1,2,3-triazol-4-yl)ethyl]-1,2,3,4,8,9-hexahydropyrido[4′,3′:3,4]pyrazolo[1,5-a]pyrazin-10(7H)-one]	> 50	0.332
Cc1cncc(CN2CCn3nc4c(c3C2=O)CN(C(=O)c2ccc(Cl)c(Cl)c2)[C@H](C)C4)c1 [Example C139]	> 50	0.04
COc1ccc(CN2CCn3nc4c(c3C2=O)CN(C(=O)c2ccc(F)c(C)c2)CC4)cc1 [Example C49]	20.6	0.274
CN1O[C@@H](CO)Cn2nc3c(c2C1=O)CN(C(=O)c1ccc(Cl)c(Cl)c1)CC3 (single isomer, unassigned) [Compound 45, (4*R)-10-(3,4-Dichlorobenzoyl)-4-(hydroxymethyl)-2-methyl-4,5,8,9,10,11-hexahydropyrido-[4′,3′:3,4]pyrazolo[5,1-d][1,2,5]oxadiazepin-1(2H)-one]	> 50	0.192
CC(c1cnccn1)N1CCn2nc3c(c2C1=O)CN(C(=O)c1ccc(Cl)c(Cl)c1)[C@H](C)C3 (stereo partly drawn) [Example C246]	> 50	0.171
O=C(c1ccc(Cl)c(Cl)c1)N1CCc2nn3c(c2C1)C(=O)N(Cc1ccncc1)CCC3 [Compound 37, 2-(3,4-Dichlorobenzoyl)-10-[(pyridin-4-yl)methyl]-1,2,3,4,7,8,9,10-octahydro-11H-pyrido-[4′,3′:3,4]pyrazolo[1,5-a][1,4]diazepin-11-one]	> 50	0.345
C[C@@H]1Cc2nn3c(c2CN1C(=O)c1ccc(Cl)c(Cl)c1)C(=O)N(Cc1cn(C)nc1C(F)F)CC3 [Example C155]	> 50	0.083
